ED50, MPE50 and IC50 data for 8 compounds are collected here from ChEMBL document CHEMBL1125839, “Synthesis and pharmacological evaluation of ether and related analogues of delta 8-, delta 9-, and delta 9,11-tetrahydrocannabinol” (J Med Chem, 1991).

In assay [1] the test system is Mus musculus. Put plainly: The compound was tested in vivo for locomotor activity in mice. Type of assay: functional.
In assay [2] the test system is Mus musculus. Put plainly: The compound was tested in vivo for ring immobility in mice. Type of assay: functional.
For assay [3], the system named is Mus musculus. Put plainly: The compound was tested in vivo for hypothermic activity in mice. Type of assay: functional.
For assay [4], the system named is Mus musculus. Put plainly: The compound was tested in vivo for tail-flick latency in mice. In kind it is functional. A general note: Thermal pain tests record how soon the animal reacts.
The target in assay [5] is T1, Cannabinoid receptor (Rattus norvegicus, UniProt Q9QZN9+P20272). Put plainly: The compound was tested in vitro for binding activity against THC cannabinoid receptor site, using 3H-CP-55940 as the radioligand. In kind it is protein assay.
Assay [6] concerns the target T1, Cannabinoid receptor. Put plainly: The compound was tested in vitro for binding activity against THC cannabinoid receptor site, using 3H-CP-55940 as the radioligand. In kind it is protein assay.

A word on the ED50: it is the midpoint of the dose-response relation. Read a low ED50 as greater potency. As for `C=C1CC[C@@H]2[C@@H](C1)c1c(O)cc(CCCCC)cc1OC2(C)C`, the ED50 in the assay with Mus musculus [1] came to 15 mg/kg; in the assay with Mus musculus [2], 24 mg/kg; in the assay with Mus musculus [3], 56 mg/kg. Also, the MPE50 in the assay on Mus musculus [4] is 5.4 mg/kg.
As usually defined, the IC50 is the concentration that inhibits the measured activity by half. Low readings indicate higher potency, high ones lower potency. Consider `CCCCCc1cc(OC)c2c(c1)OC(C)(C)[C@@H]1CCC(C)=C[C@@H]21`, for which the ED50 with Mus musculus [1] is over 100 mg/kg; with Mus musculus [2] it was 17 mg/kg; with Mus musculus [3], 267 mg/kg. Besides, the MPE50 in the assay on Mus musculus [4] was found to be 116 mg/kg. This compound displayed an IC50 at Cannabinoid receptor [5] of 10 µM.
For `C=C1C[C@H]2c3c(O)cc(CCCCC)cc3OC(C)(C)[C@@H]2C[C@H]1O` the same measures were 20 mg/kg, 63 mg/kg, 50 mg/kg, 25 mg/kg and 1.2 µM.
For `C=C1CC[C@@H]2[C@@H](C1)c1c(O)cc(CCC)cc1OC2(C)C` the same measures were 20 mg/kg, over 30 mg/kg, over 30 mg/kg, 15 mg/kg and 1.4 µM.
For `CCCCCc1cc(OC)c2c(c1)OC(C)(C)[C@@H]1CC=C(C)C[C@@H]21` the same measures were over 100 mg/kg, over 100 mg/kg, over 100 mg/kg, 33 mg/kg and 3.2 µM.
Turning to `CCCCCc1cc(O)c2c(c1)OC(C)(C)[C@@H]1CC=C(C)C[C@@H]21` [DELTA-8-TETRAHYDROCANNABINOL], the ED50 in the assay on Mus musculus [1] amounted to 1.9 mg/kg; in the assay on Mus musculus [2], 5.2 mg/kg. The same compound gave an MPE50 in the assay on Mus musculus [4] of 1.5 mg/kg.
Take `CCCCCc1cc(OCCN2CCOCC2)c2c(c1)OC(C)(C)[C@@H]1CC=C(C)C[C@@H]21`: the ED50 was over 100 mg/kg in the assay on Mus musculus [1], 118 mg/kg in the assay with Mus musculus [2] and over 100 mg/kg in the assay on Mus musculus [3]. Moreover, the MPE50 in the assay with Mus musculus [4] was over 100 mg/kg. Also, the IC50 on Cannabinoid receptor [6] was determined as 4.3 µM.
For the compound `CCCCCc1cc(O)c2c(c1)OC(C)(C)[C@@H]1CCC(C)=C[C@@H]21` [DRONABINOL], the ED50 with Mus musculus [1] is 1 mg/kg; in the assay with Mus musculus [2], 1.5 mg/kg; in the assay on Mus musculus [3], 1.4 mg/kg. The compound further came in with an MPE50 in the assay on Mus musculus [4] of 1.4 mg/kg.
